Assay results: PubChem BioAssay (NCI)
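1) Cells in 96-well plates. 2) Compound, 48 h, 5 concentrations. 3) Linear interpolation between surrounding doses. 4) Unreached endpoint = highest concentration. TGI: total growth inhibition.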 Where a SMILES comes first, the peptide text is derived from it. Bridges are numbered along the chain shown (N, C = ends). [ ]: non-standard residue; d: D form. The star is where a group is joined. Cya = N[CH](CS(=O)(=O)O)C(=O)O; X49 = CC(C)CCCCCCCC(O)CC(=O)*; GABA = NCCCC(=O)O

Tests used:
Assay in all cases: NCI tumour cell line growth inhibition, 48 h
[1] = tested on: MDA-MB-231 breast
[2] = tested on: CCRF-CEM leukemia
[3] = tested on: HT29 colon
[4] = tested on: HCT-116 colon
[5] = tested on: MDA-N
[6] = tested on: NCI/ADR-RES ovarian
[7] = tested on: NCI-H522 lung
[8] = tested on: SK-MEL-2 melanoma
[9] = tested on: MOLT-4 leukemia
[10] = tested on: OVCAR-8 ovarian
[11] = tested on: TK-10 renal
[12] = tested on: U251 CNS
[13] = tested on: UACC-62 melanoma
[14] = tested on: SF-539 CNS
[15] = tested on: IGROV1 ovarian
[16] = tested on: SK-MEL-5 melanoma
[17] = tested on: UO-31 renal
[18] = tested on: HOP-62 NSCLC
[19] = tested on: SF-295 CNS
[20] = tested on: M14 melanoma
[21] = tested on: MCF7 breast
[22] = tested on: HS 578T breast
[23] = tested on: 786-0 renal
[24] = tested on: NCI-H226 lung
[25] = tested on: NCI-H23 lung
[26] = tested on: HOP-92 NSCLC
[27] = tested on: DU-145 prostate
[28] = tested on: OVCAR-3 ovarian
[29] = tested on: PC-3 prostate
[30] = tested on: SNB-19 CNS
[31] = tested on: LOX IMVI melanoma
[32] = tested on: OVCAR-5 ovarian
[33] = tested on: KM12 colon
[34] = tested on: OVCAR-4 ovarian
[35] = tested on: A498 renal
[36] = tested on: K-562 leukemia
[37] = tested on: SW-620 colon
[38] = tested on: HCC-2998 colon
[39] = tested on: NCI-H460 lung
[40] = tested on: SNB-75 CNS
[41] = tested on: HCT-15 colon
[42] = tested on: BT-549 breast
[43] = tested on: SN12C renal
[44] = tested on: CAKI-1 renal
[45] = tested on: MALME-3M melanoma
[46] = tested on: HL-60(TB) leukemia
[47] = tested on: SR leukemia
[48] = tested on: ACHN renal
[49] = tested on: T-47D breast
[50] = tested on: RPMI-8226 leukemia
[51] = tested on: EKVX NSCLC
[52] = tested on: SK-OV-3 ovarian
[53] = tested on: UACC-257 melanoma
[54] = tested on: SK-MEL-28 melanoma
[55] = tested on: COLO 205 colon
[56] = tested on: MDA-MB-435
[57] = tested on: A549 NSCLC
[58] = tested on: SF-268 CNS

CC(C)CCCCCCCC(O)CC(=O)NC(CS(=O)(=O)O)C(=O)NC(CC(C)C)C(=O)NCCCC(=O)NC(Cc1cnc[nH]1)C(=O)NC(C)C(=O)NC1C(=O)NC(C(C)O)C(=O)NC(Cc2cnc[nH]2)C(=O)NC(C)C(=O)NC(C(C)O)C(=O)OC1C (centres undefined) (X49-[Cya]L[GABA]HATTHAT; ester 6-C; configuration not given here)
TGI [1]: > 25 µM | TGI [2]: > 25 µM | TGI [3]: > 25 µM | TGI [4]: > 25 µM | TGI [5]: > 25 µM | TGI [6]: > 25 µM | TGI [7]: > 25 µM | TGI [8]: > 25 µM | TGI [9]: > 25 µM | TGI [10]: > 25 µM | TGI [11]: > 25 µM | TGI [12]: > 25 µM | TGI [13]: > 25 µM | TGI [14]: > 25 µM | TGI [15]: > 25 µM | TGI [16]: > 25 µM | TGI [17]: > 25 µM | TGI [18]: > 25 µM | TGI [19]: > 25 µM | TGI [20]: > 25 µM | TGI [21]: > 25 µM | TGI [22]: > 25 µM | TGI [23]: > 25 µM | TGI [24]: > 25 µM | TGI [25]: > 25 µM | TGI [26]: > 25 µM | TGI [27]: > 25 µM | TGI [28]: > 25 µM | TGI [29]: > 25 µM | TGI [30]: > 25 µM | TGI [31]: > 25 µM | TGI [32]: > 25 µM | TGI [33]: > 25 µM | TGI [34]: > 25 µM | TGI [35]: > 25 µM | TGI [36]: > 25 µM | TGI [37]: > 25 µM | TGI [38]: > 25 µM | TGI [39]: > 25 µM | TGI [40]: > 25 µM | TGI [41]: > 25 µM | TGI [42]: > 25 µM | TGI [43]: > 25 µM | TGI [44]: > 25 µM | TGI [45]: > 25 µM | TGI [46]: > 25 µM | TGI [47]: > 25 µM | TGI [48]: > 25 µM | TGI [49]: > 25 µM | TGI [50]: > 25 µM | TGI [51]: > 25 µM | TGI [52]: > 25 µM | TGI [53]: > 25 µM | TGI [54]: > 25 µM | TGI [55]: > 25 µM | TGI [56]: > 25 µM | TGI [57]: > 25 µM

CC(=O)OC1(C)C(=O)OC/C2=C/CN(C)CCC(OC(=O)C(O)(C(C)Cl)CC1C)C2=O (centres undefined)
TGI [1]: > 100 µM | TGI [2]: > 100 µM | TGI [3]: > 100 µM | TGI [4]: > 100 µM | TGI [5]: > 100 µM | TGI [6]: > 100 µM | TGI [7]: > 100 µM | TGI [8]: > 100 µM | TGI [9]: > 100 µM | TGI [10]: > 100 µM | TGI [11]: > 100 µM | TGI [12]: > 100 µM | TGI [13]: > 100 µM | TGI [14]: > 100 µM | TGI [15]: > 100 µM | TGI [16]: > 100 µM | TGI [17]: > 100 µM | TGI [18]: > 100 µM | TGI [58]: > 100 µM | TGI [19]: > 100 µM | TGI [20]: > 100 µM | TGI [21]: > 100 µM | TGI [22]: > 100 µM | TGI [23]: > 100 µM | TGI [24]: > 100 µM | TGI [25]: > 100 µM | TGI [26]: > 100 µM | TGI [27]: > 100 µM | TGI [28]: > 100 µM | TGI [29]: > 100 µM | TGI [30]: > 100 µM | TGI [31]: > 100 µM | TGI [32]: > 100 µM | TGI [33]: > 100 µM | TGI [34]: > 100 µM | TGI [35]: > 100 µM | TGI [36]: > 100 µM | TGI [37]: > 100 µM | TGI [38]: > 100 µM | TGI [39]: > 100 µM | TGI [40]: > 100 µM | TGI [41]: > 100 µM | TGI [42]: > 100 µM | TGI [43]: > 100 µM | TGI [44]: > 100 µM | TGI [46]: > 100 µM | TGI [47]: > 100 µM | TGI [48]: > 100 µM | TGI [49]: > 100 µM | TGI [50]: > 100 µM | TGI [51]: > 100 µM | TGI [52]: > 100 µM | TGI [53]: > 100 µM | TGI [54]: > 100 µM | TGI [55]: > 100 µM | TGI [56]: > 100 µM | TGI [57]: > 100 µM
